According to patent publication US20160130278A1 (TAISHO PHARMACEUTICAL CO., LTD, priority 2013, published 2016):
pIC50: −log10 of the molar value.

target: T1, human type 1 glycine transporter (GlyT1) (Homo sapiens, UniProt P48067); experiment: Glycine uptake inhibition experiment ([3H]glycine uptake); type: cell-based; conditions: GlyT1
T1 construct: T98G cells (glioma cells) expressing human type 1 glycine transporter (GlyT1) were used
T1 sequence (P48067 1-706): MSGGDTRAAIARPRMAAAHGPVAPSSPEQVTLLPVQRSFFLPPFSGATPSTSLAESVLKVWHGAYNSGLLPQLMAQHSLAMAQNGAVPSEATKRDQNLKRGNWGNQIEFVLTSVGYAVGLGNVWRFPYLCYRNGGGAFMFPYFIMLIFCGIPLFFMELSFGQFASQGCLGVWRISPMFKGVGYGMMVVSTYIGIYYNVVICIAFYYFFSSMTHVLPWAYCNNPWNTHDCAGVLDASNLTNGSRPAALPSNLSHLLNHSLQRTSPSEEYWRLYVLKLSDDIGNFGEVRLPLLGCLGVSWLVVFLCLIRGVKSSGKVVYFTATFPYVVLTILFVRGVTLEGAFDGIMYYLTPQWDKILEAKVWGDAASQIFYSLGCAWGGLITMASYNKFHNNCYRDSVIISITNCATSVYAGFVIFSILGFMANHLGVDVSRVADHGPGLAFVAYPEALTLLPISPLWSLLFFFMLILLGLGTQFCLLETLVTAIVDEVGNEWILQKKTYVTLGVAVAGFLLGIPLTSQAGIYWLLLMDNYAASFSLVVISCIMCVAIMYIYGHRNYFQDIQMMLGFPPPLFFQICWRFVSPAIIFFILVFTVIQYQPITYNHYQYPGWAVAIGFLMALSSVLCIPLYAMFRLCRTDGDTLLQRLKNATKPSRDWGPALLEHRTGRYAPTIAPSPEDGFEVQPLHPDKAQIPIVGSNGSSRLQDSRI
Method in brief: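 T98G glioma cells expressing human GlyT1 were pretreated 10 min with compound in HEPES buffer pH 7.4 (0.2% BSA), then incubated with compound plus 250 nM final [3H]glycine for 15 min at room temperature. Intracellular radioactivity was counted after NaOH lysis; 10 μM ALX5407 defined non-specific uptake. IC50 came from 10^−9–10^−5 M curves.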

pIC50	Structure (SMILES)
6.23	COC(=O)c1cccc(C(NC(=O)c2nccc(C(F)(F)F)c2Cl)C2(O)CCCC2)c1 (centres unmarked) [Compound 98, methyl 3-[({[3-chloro-4-(trifluoromethyl)pyridin-2-yl]carbonyl}amino)(1-hydroxycyclopentyl)methyl]benzoate]
5.46	CS(=O)(=O)c1ccc(Cl)c(C(=O)NC(c2cccc(F)c2Cl)[C@]2(O)CC[C@@H](F)CC2)c1 (single isomer, unassigned) [Compound 296, 2-chloro-N-[(2-chloro-3-fluorophenyl)(cis-4-fluoro-1-hydroxycyclohexyl)methyl]-5-(methylsuflonyl)benzamide]
6.54	O=C(NC(c1cccc(-c2cncnc2)c1)C1(O)CCCC1)c1cccc(C(F)(F)F)c1Cl (centres unmarked) [Compound 7, 2-chloro-N-{(1-hydroxycyclopentyl)[3-(pyrimidin-5-yl)phenyl]methyl}-3-(trifluoromethyl)benzamide]
6.85	O=C(NC(c1cccc(Cl)c1)C1(O)CCCC1)c1ccnc(C(F)(F)F)c1Cl (single isomer, unassigned) [Compound 185, 3-chloro-N-[(3-chlorophenyl)(1-hydroxycyclopentyl)methyl]-2-(trifluoromethyl)pyridine-4-carboxamide]
6.47	CCn1cc(-c2cccc(C(NC(=O)c3ccc(F)cc3C(F)(F)F)C3(O)CCC(F)(F)CC3)c2)cn1 (centres unmarked) [Compound 192, N-{(4,4-difluoro-1-hydroxycyclohexyl)[3-(1-ethyl-1H-pyraozl-4-yl)phenyl]methyl}-4-fluoro-2-(trifluoromethyl)benzamide]
5.72	CCn1cc(-c2cccc(C(NC(=O)c3ccccc3Cl)C3(O)CCC(F)(F)CC3)c2)cn1 (centres unmarked) [Compound 205, 2-chloro-N-[(4,4-difluoro-1-hydroxycyclohexyl)[3-(1-ethyl-1H-pyrazol-4-yl)phenyl]methyl}benzamide]
5.80	O=C(NC(c1cccc(F)c1Cl)[C@]1(O)CC[C@@H](F)CC1)c1ncc(Cl)cc1-n1nccn1 (single isomer, unassigned) [Compound 371, 5-chloro-N-[(2-chloro-3-fluorophenyl)(cis-4-fluoro-1-hydroxycyclohexyl)methyl]-3-(2H-1,2,3-triazol-2-yl)pyridine-2-carboxamide]
6.00	O=C(NC(c1cccc(F)c1Cl)[C@]1(O)CC[C@@H](F)CC1)c1ccccc1Cl (single isomer, unassigned) [Compound 247, 2-chloro-N-[(2-chloro-3-fluorophenyl)(cis-4-fluoro-1-hydroxycyclohexyl)methyl]benzamide]
6.38	O=C(NC(c1cccc(F)c1Cl)[C@]1(O)CC[C@@H](F)CC1)c1cc(Cl)ccc1C(F)(F)F (single isomer, unassigned) [Compound 314, 5-chloro-N-[(2-chloro-3-fluorophenyl)(cis-4-fluoro-1-hydroxycyclohexyl)methyl]-2-(trifluoromethyl)benzamide]
6.26	O=C(NC(c1cccc(Cl)n1)[C@]1(O)CC[C@@H](F)CC1)c1cc(C(F)(F)F)ncc1Cl (single isomer, unassigned) [Compound 309, 5-chloro-N-[(6-chloropyridin-2-yl)(cis-4-fluoro-1-hydroxycyclohexyl)methyl]-2-(trifluoromethyl)pyridine-4-carboxamide]
5.40	CCn1cc(-c2cccc(C(NC(=O)c3ccc(Cl)c(Cl)c3)C3(O)CCC(F)(F)CC3)c2)cn1 (centres unmarked) [Compound 175, 3,4-dichloro-N-{(4,4-difluoro-1-hydroxycyclohexyl)[3-(1-ethyl-1H-pyrazol-4-yl)phenyl]methyl}benzamide]
6.16	O=C(NC(c1cccc(F)c1)C1(O)CCC1)c1nccc(C(F)(F)F)c1Cl (single isomer, unassigned) [Compound 66, 3-chloro-N-[(3-fluorophenyl)(1-hydroxycyclobutyl)methyl]-4-(trifluoromethyl)pyridine-2-carboxamide]
5.82	O=C(NC(c1cccc(F)c1Cl)[C@]1(O)CC[C@@H](F)CC1)c1cc(O)ccc1Cl (single isomer, unassigned) [Compound 297, 2-chloro-N-[(2-chloro-3-fluorophenyl)(cis-4-fluoro-1-hydroxycyclohexyl)methyl]-5-hydroxybenzamide]
6.82	O=C(N[C@@H](c1cccc(Cl)c1)[C@]1(O)CC[C@@H](F)CC1)c1ccnc(C(F)(F)F)c1Cl [Compound 186, 3-chloro-N-[(S)-(3-chlorophenyl)(cis-4-fluoro-1-hydroxycyclohexyl)methyl]-2-(trifluoromethyl)pyridine-4-carboxamide]
6.60	O=C(NC(c1cccc(Br)c1)C1(O)CCC(F)CC1)c1nccc(C(F)(F)F)c1Cl (centres unmarked) [Compound 96, N-[(3-bromophenyl)(4-fluoro-1-hydroxycyclohexyl)methyl]-3-chloro-4-(trifluoromethyl)pyridine-2-carboxamide]

Further lines, the compound ahead of its results:

Structure (SMILES)	pIC50
CCn1cc(-c2cccc(C(NC(=O)c3cc(C(F)(F)F)ccc3C)C3(O)CCC(F)(F)CC3)c2)cn1 (centres unmarked) [Compound 179, N-{(4,4-difluoro-1-hydroxycyclohexyl)[3-(1-ethyl-1H-pyrazol-4-yl)phenyl]methyl}-2-methyl-5-(trifluoromethyl)benzamide]	6.21
O=C(NC(c1ccccc1F)[C@]1(O)CC[C@H](F)CC1)c1nccc(C(F)(F)F)c1Cl (single isomer, unassigned) [Compound 240, 3-chloro-N-[(trans-4-fluoro-1-hydroxycyclohexyl)(2-fluorophenyl)methyl]-4-(trifluoromethyl)pyridine-2-carboxamide]	6.64
CCn1cc(-c2cccc(C(NC(=O)c3cc(Cl)ccc3Cl)C3(O)CCC(F)(F)CC3)c2)cn1 (single isomer, unassigned) [Compound 193, 2,5-dichloro-N-{(4,4-difluroo-1-hydroxycyclohexyl)[3-(1-ethyl-1H-pyrazol-4-yl)phenyl]methyl}benzamide]	6.08
O=C(NC(c1cccc(-c2cccnc2)c1)C1(O)CCCC1)c1nccc(C(F)(F)F)c1Cl (single isomer, unassigned) [Compound 24, 3-chloro-N-{(1-hydroxycyclopentyl)[3-(pyridin-3-yl)phenyl]methyl}-4-(trifluoromethyl)pyridine-2-carboxamide]	5.70
O=C(NC(c1cc(Cl)cc(Cl)c1)C1(O)CCCC1)c1nccc(C(F)(F)F)c1Cl (single isomer, unassigned) [Compound 115, 3-chloro-N-[(3,5-dichlorophenyl)(1-hydroxycyclopentyl)methyl]-4-(trifluoromethyl)pyridine-2-carboxamide]	7.23
O=C(NC(c1cccc(F)c1Cl)[C@]1(O)CC[C@@H](F)CC1)c1ccc(C(F)(F)F)cc1-n1cnnn1 (single isomer, unassigned) [Compound 391, N-[(2-chloro-3-fluorophenyl)(cis-4-fluoro-1-hydroxycyclohexyl)methyl]-2-(1H-tetrazol-1-yl)-4-(trifluoromethyl)benzamide]	7.57
CCn1cc(-c2cccc(C(NC(=O)c3cc(Cl)ccc3C(F)(F)F)C3(O)CCC(F)(F)CC3)c2)cn1 (centres unmarked) [Compound 203, 5-chloro-N-{(4,4-difluoro-1-hydroxycyclohexyl)[3-(1-ethyl-1H-pyrazol-4-yl)phenyl]methyl}-2-(trifluoromethyl)benzamide]	6.14
CS(=O)(=O)c1ccccc1C(=O)NC(c1cccc(F)c1Cl)[C@]1(O)CC[C@@H](F)CC1 (single isomer, unassigned) [Compound 281, N-[(2-chloro-3-fluorophenyl)(cis-4-fluoro-1-hydroxycyclohexyl)methyl]-2-(methylsulfonyl)benzamide]	5.68
Cc1noc2nc(C3CC3)cc(C(=O)NC(c3cccc(F)c3Cl)[C@]3(O)CC[C@@H](F)CC3)c12 (single isomer, unassigned) [Compound 263, N-[(2-chloro-3-fluorophenyl)(cis-4-fluoro-1-hydroxycyclohexyl)methyl]-6-cyclopropyl-3-methyl[1,2]oxazolo[5,4-b]pyridine-4-carboxamide]	6.00
O=C(NC(c1ccc(F)c(Cl)c1)C1(O)CCCC1)c1nccc(C(F)(F)F)c1Cl (single isomer, unassigned) [Compound 97, 3-chloro-N-[(3-chloro-4-fluorophenyl)(1-hydroxycyclopentyl)methyl]-4-(trifluoromethyl)pyridine-2-carboxamide]	6.57
O=C(NC(c1cccc(F)c1Cl)C1(O)CCC(F)(F)CC1)c1ccnc(C(F)(F)F)c1Cl (single isomer, unassigned) [Compound 178, 3-chloro-N-[(2-chloro-3-fluorophenyl)(4,4-difluoro-1-hydroxycyclohexyl)methyl]-2-(trifluoromethyl)pyridine-4-carboxamide]	6.89
